# Reference: publication PMC3856494, “Radiofluorination and biological evaluation of N-aryl-oxadiazolyl-propionamides as potential radioligands for PET imaging of cannabinoid CB2 receptors” (Organic and Medicinal Chemistry Letters, 2013)
# Key:
# [1] = Ex vivo biodistribution (organ distribution) in mice; conditions: i.v. 300 to 400 kBq, female CD1 mice
# Experimental: (§1) Female CD1 mice (10 to 12 weeks old, 20 to 25 g) received an injection of 300 to 400 kBq of [^18F]1 or [^18F]2 with specific activities of >450 GBq/μmol in 200 μL of 0.9% NaCl/10% EtOH into the tail vein. The animals were anesthetized (CO2/O2 mixture) for blood and urine sampling and euthanized by luxation of the cervical spine at 5, 30, and 60 min after injection (p.i.) (n = 2 to 5 per time). The organs of interest were removed and weighed, and the activities were measured by γ counting using a calibrated γ counter Wallac Wizard 1470 (Perkin Elmer Inc., Waltham, MA, USA). The percentage of injected dose per gram of wet tissue (% ID/g wet weight) was calculated.
# [2] = In vitro radiochemical stability; format: physicochemical; conditions: 40°C, after 30 min of incubation
# Experimental: In vitro radiochemical stabilities of [^18F]1 and [^18F]2 were investigated in 0.9% NaCl solution, Dulbecco’s phosphate buffer, 0.01 M Tris–HCl (pH 7.4 at 21°C), and EtOH at 40°C for 90 min. Samples were taken at 15, 30, 60, and 90 min after incubation and analyzed by radio-TLC and radio-HPLC.
# CB2R = CB2R (Mus musculus, UniProt P47936); set-up: species or system female CD1 mice; conditions: female, CD1, mouse, in vivo
# CB2R, sequence (P47936 whole entry): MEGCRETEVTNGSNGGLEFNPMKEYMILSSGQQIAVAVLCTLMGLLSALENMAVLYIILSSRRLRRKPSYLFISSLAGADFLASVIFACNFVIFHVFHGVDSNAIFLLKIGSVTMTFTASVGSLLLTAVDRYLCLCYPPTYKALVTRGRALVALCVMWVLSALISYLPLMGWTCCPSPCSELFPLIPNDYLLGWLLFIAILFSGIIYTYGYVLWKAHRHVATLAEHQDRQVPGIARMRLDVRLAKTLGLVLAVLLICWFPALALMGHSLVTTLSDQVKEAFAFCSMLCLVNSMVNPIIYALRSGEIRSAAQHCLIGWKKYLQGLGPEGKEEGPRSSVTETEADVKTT
# Experimental: as §1
# (3 mg/kg i.p. in 0.9% saline, 10 min before the injection of the radiotracer) at 60 min p.i. (n = 2 to 5). The unpaired two-tailed t test was used to compare the results between the groups. We considered differences to be significant at a p value <0.05.
# [3] = Ex vivo metabolite studies (radio-HPLC of plasma and brain extracts); format: in vivo, CD1 mice; conditions: mice
# Experimental: [^18F]1 and [^18F]2 (100 to 150 MBq, 250 to 450 GBq/μmol in 150 μL NaCl 0.9%/10% EtOH) were injected via the tail vein in CD1 male mice (10 to 12 weeks old, 20 to 25 g). Blood and urine samples were obtained at 30 and 60 min p.i. (n = 3 per time point). Twofold extractions of plasma and brain samples (n = 3) were performed using ice-cold MeCN according to the standard protocol established in our group (see [47, 48]). Briefly, plasma samples were obtained by centrifugation of the blood at 4,000×g at 4°C for 10 min, and brain samples were homogenized in ice-cold 50 mM Tris–HCl (pH = 7.4). The samples were vortexed, incubated on ice, and centrifuged at 10,000×g for 3 min. Supernatants were collected, and the precipitates were re-dissolved in ice-cold MeCN for the second extraction. The supernatants from the two extractions were combined, concentrated under a gentle argon stream at 65°C, and analyzed by radio-TLC and gradient analytical HPLC (see ‘Radiochemistry’ section). Aliquots from each extraction supernatant and the precipitates were also taken and quantified by γ counting (Wallac Wizard 1470, Perkin Elmer Inc., Waltham, MA, USA) along with the respective aliquots of intact plasma samples and brain homogenates. A moderate recovery of radioactivity was obtained from plasma samples and brain homogenates (60% to 70%). Radiometabolites of [^18F]17 in the plasma, spleen, and brain were assessed at 30 and 60 min p.i.
compound,measurement,setting,value
O=C(CCc1nc(-c2ccc(F)cc2Br)no1)Nc1ccc2c(c1)c1ccccc1n2CC[18F] [[^18F]1],"Radioactivity uptake, Adrenals, Control 5 min",[1],4.16 ± 6.23 % ID/g
same,"Radioactivity uptake, Adrenals, Control 30 min",[1],3.31 ± 0.99 % ID/g
same,"Radioactivity uptake, Adrenals, Control 60 min",[1],3.16 ± 1.25 % ID/g
same,"Radioactivity uptake, Bladder, Control 5 min",[1],2.23 ± 1.39 % ID/g
same,"Radioactivity uptake, Bladder, Control 30 min",[1],1.65 ± 0.43 % ID/g
same,"Radioactivity uptake, Bladder, Control 60 min",[1],3.27 ± 1.94 % ID/g
same,"Radioactivity uptake, Blood, Control 5 min",[1],1.94 ± 0.44 % ID/g
same,"Radioactivity uptake, Blood, Control 30 min",[1],1.44 ± 0.41 % ID/g
same,"Radioactivity uptake, Blood, Control 60 min",[1],1.94 ± 0.69 % ID/g
same,"Radioactivity uptake, Brain, Control 5 min",[1],1.31 ± 0.24 % ID/g
same,"Radioactivity uptake, Brain, Control 30 min",[1],0.76 ± 0.22 % ID/g
same,"Radioactivity uptake, Brain, Control 60 min",[1],0.92 ± 0.27 % ID/g
same,"Radioactivity uptake, Femur, Control 5 min",[1],2.00 ± 0.38 % ID/g
same,"Radioactivity uptake, Femur, Control 30 min",[1],1.37 ± 0.50 % ID/g
same,"Radioactivity uptake, Femur, Control 60 min",[1],1.84 ± 0.35 % ID/g
same,"Radioactivity uptake, Gonads, Control 5 min",[1],1.06 ± 0.94 % ID/g
same,"Radioactivity uptake, Gonads, Control 30 min",[1],1.02 ± 0.26 % ID/g
same,"Radioactivity uptake, Gonads, Control 60 min",[1],1.33 ± 0.50 % ID/g
same,"Radioactivity uptake, Heart, Control 5 min",[1],3.39 ± 0.45 % ID/g
same,"Radioactivity uptake, Heart, Control 30 min",[1],1.43 ± 0.47 % ID/g
same,"Radioactivity uptake, Heart, Control 60 min",[1],1.66 ± 0.37 % ID/g
same,"Radioactivity uptake, Kidney, Control 5 min",[1],13.40 ± 5.66 % ID/g
same,"Radioactivity uptake, Kidney, Control 30 min",[1],2.68 ± 0.37 % ID/g
same,"Radioactivity uptake, Kidney, Control 60 min",[1],1.65 ± 0.49 % ID/g
same,"Radioactivity uptake, Large intestine, Control 5 min",[1],1.91 ± 2.66 % ID/g
same,"Radioactivity uptake, Large intestine, Control 30 min",[1],3.24 ± 5.61 % ID/g
same,"Radioactivity uptake, Large intestine, Control 60 min",[1],1.54 ± 0.42 % ID/g
same,"Radioactivity uptake, Liver, Control 5 min",[1],11.00 ± 1.04 % ID/g
same,"Radioactivity uptake, Liver, Control 30 min",[1],4.38 ± 1.19 % ID/g
same,"Radioactivity uptake, Liver, Control 60 min",[1],5.29 ± 1.22 % ID/g
same,"Radioactivity uptake, Lung, Control 5 min",[1],3.68 ± 0.62 % ID/g
same,"Radioactivity uptake, Lung, Control 30 min",[1],1.65 ± 0.70 % ID/g
same,"Radioactivity uptake, Lung, Control 60 min",[1],1.77 ± 0.74 % ID/g
same,"Radioactivity uptake, Muscle, Control 5 min",[1],2.10 ± 0.33 % ID/g
same,"Radioactivity uptake, Muscle, Control 30 min",[1],1.02 ± 0.50 % ID/g
same,"Radioactivity uptake, Muscle, Control 60 min",[1],0.89 ± 0.19 % ID/g
same,"Radioactivity uptake, Pancreas, Control 5 min",[1],4.97 ± 0.62 % ID/g
same,"Radioactivity uptake, Pancreas, Control 30 min",[1],1.50 ± 0.74 % ID/g
same,"Radioactivity uptake, Pancreas, Control 60 min",[1],1.13 ± 0.11 % ID/g
same,"Radioactivity uptake, Plasma, Control 5 min",[1],2.52 ± 0.58 % ID/g
same,"Radioactivity uptake, Plasma, Control 30 min",[1],1.88 ± 0.58 % ID/g
same,"Radioactivity uptake, Plasma, Control 60 min",[1],2.50 ± 0.87 % ID/g
same,"Radioactivity uptake, Small intestine, Control 5 min",[1],4.36 ± 2.09 % ID/g
same,"Radioactivity uptake, Small intestine, Control 30 min",[1],10.51 ± 8.38 % ID/g
same,"Radioactivity uptake, Small intestine, Control 60 min",[1],22.03 ± 8.32 % ID/g
same,"Radioactivity uptake, Spleen, Control 5 min",[1],3.44 ± 0.77 % ID/g
same,"Radioactivity uptake, Spleen, Control 30 min",[1],1.46 ± 0.56 % ID/g
same,"Radioactivity uptake, Spleen, Control 60 min",[1],1.52 ± 0.62 % ID/g
same,"Radioactivity uptake, Stomach, Control 5 min",[1],2.05 ± 0.33 % ID/g
same,"Radioactivity uptake, Stomach, Control 30 min",[1],1.23 ± 0.36 % ID/g
same,"Radioactivity uptake, Stomach, Control 60 min",[1],2.70 ± 1.47 % ID/g
same,"Radioactivity uptake, Thymus, Control 5 min",[1],3.30 ± 0.58 % ID/g
same,"Radioactivity uptake, Thymus, Control 30 min",[1],1.57 ± 0.80 % ID/g
same,"Radioactivity uptake, Thymus, Control 60 min",[1],1.90 ± 0.98 % ID/g
same,intact tracer,[2]; 0.9% NaCl,95%
same,intact tracer,[2]; Dulbecco’s phosphate buffer,94%
same,intact tracer,[2]; EtOH,93%
same,intact tracer,[2]; Tris–HCl,89%
same,"Radioactivity uptake, Adrenals, Blocking 60 min","CB2R; 3 mg/kg, 1 h",3.00 ± 0.64 % ID/g
same,"Radioactivity uptake, Bladder, Blocking 60 min","CB2R; 3 mg/kg, 1 h",5.07 ± 3.84 % ID/g
same,"Radioactivity uptake, Blood, Blocking 60 min","CB2R; 3 mg/kg, 1 h",1.43 ± 0.34 % ID/g
same,"Radioactivity uptake, Brain, Blocking 60 min","CB2R; 3 mg/kg, 1 h",0.66 ± 0.11 % ID/g
same,"Radioactivity uptake, Femur, Blocking 60 min","CB2R; 3 mg/kg, 1 h",1.49 ± 0.45 % ID/g
same,"Radioactivity uptake, Gonads, Blocking 60 min","CB2R; 3 mg/kg, 1 h",1.19 ± 0.30 % ID/g
same,"Radioactivity uptake, Heart, Blocking 60 min","CB2R; 3 mg/kg, 1 h",1.49 ± 0.29 % ID/g
same,"Radioactivity uptake, Kidney, Blocking 60 min","CB2R; 3 mg/kg, 1 h",1.74 ± 0.48 % ID/g
same,"Radioactivity uptake, Large intestine, Blocking 60 min","CB2R; 3 mg/kg, 1 h",1.63 ± 0.64 % ID/g
same,"Radioactivity uptake, Liver, Blocking 60 min","CB2R; 3 mg/kg, 1 h",4.22 ± 0.96 % ID/g
same,"Radioactivity uptake, Lung, Blocking 60 min","CB2R; 3 mg/kg, 1 h",1.47 ± 0.29 % ID/g
same,"Radioactivity uptake, Muscle, Blocking 60 min","CB2R; 3 mg/kg, 1 h",0.93 ± 0.23 % ID/g
same,"Radioactivity uptake, Pancreas, Blocking 60 min","CB2R; 3 mg/kg, 1 h",1.03 ± 0.26 % ID/g
same,"Radioactivity uptake, Plasma, Blocking 60 min","CB2R; 3 mg/kg, 1 h",1.87 ± 0.41 % ID/g
same,"Radioactivity uptake, Small intestine, Blocking 60 min","CB2R; 3 mg/kg, 1 h",19.39 ± 5.53 % ID/g
same,"Radioactivity uptake, Spleen, Blocking 60 min","CB2R; 3 mg/kg, 1 h",0.98 ± 0.21 % ID/g
same,"Radioactivity uptake, Stomach, Blocking 60 min","CB2R; 3 mg/kg, 1 h",1.84 ± 1.28 % ID/g
same,"Radioactivity uptake, Thymus, Blocking 60 min","CB2R; 3 mg/kg, 1 h",1.50 ± 0.35 % ID/g
same,"% control, Adrenals",CB2R; 60 min,95 % control
same,"% control, Bladder",CB2R; 60 min,155 % control
same,"% control, Blood",CB2R; 60 min,74 % control
same,"% control, Brain",CB2R; 60 min,72 % control
same,"% control, Femur",CB2R; 60 min,81 % control
same,"% control, Gonads",CB2R; 60 min,89 % control
same,"% control, Heart",CB2R; 60 min,90 % control
same,"% control, Kidney",CB2R; 60 min,106 % control
same,"% control, L. intestine",CB2R; 60 min,106 % control
same,"% control, Liver",CB2R; 60 min,80 % control
same,"% control, Lung",CB2R; 60 min,83 % control
same,"% control, Muscle",CB2R; 60 min,104 % control
same,"% control, Pancreas",CB2R; 60 min,91 % control
same,"% control, Plasma",CB2R; 60 min,75 % control
same,"% control, S. intestine",CB2R; 60 min,88 % control
same,"% control, Spleen",CB2R; 60 min,65 % control
same,"% control, Stomach",CB2R; 60 min,68 % control
same,"% control, Thymus",CB2R; 60 min,79 % control
same,"Percentage of total activity in brain samples, 30 min p.i.","[3]; brain homogenate extract, 30 min p.i. of [18F]1 or [18F]2, radio-HPLC",68%
same,"Percentage of total activity in brain samples, 60 min p.i.","[3]; brain homogenate extract, 60 min p.i. of [18F]1 or [18F]2, radio-HPLC",35%
same,"Relative percentage of intact tracer and radiometabolites, Plasma 30 min p.i.","[3]; plasma, 30 min p.i. of [18F]1 or [18F]2, radio-HPLC",60%
same,"Relative percentage of intact tracer and radiometabolites, Plasma 60 min p.i.","[3]; plasma, 60 min p.i. of [18F]1 or [18F]2, radio-HPLC",7%
